In patent US9968609B2, “Sildenafil solutions and methods of making and using same” (Vigorous Solutions Ltd., priority 2014, dated 2018):
Where a name gives a salt, the structure may show the parent alone.

Assay: Spectrophotometric absorbance at 228 nm before and after 0.22 micron filtration (Example 12)
Assay type: physicochemical
Settings: 70% ethanol in water, organic solvent or mixture; as prepared in Example 1, 70% ethanol; read-out: concentration at which fully soluble
Description: A UV-VIS Genesys 105 Thermo Scientific spectrophotometer was used for the assay. Samples were placed in a UV Kurette Halbmicro/UV Cuvette semi micro [Cat no: 759150] for reading.
Because the reference describes measurements at μg/ml concentrations, both the filtered and unfiltered 18 mg/ml solutions were diluted to 9 μg/ml and 12.5 μg/ml and measured again.

**Q.** For `CCCc1nn(C)c2c(=O)[nH]c(-c3cc(S(=O)(=O)N4CCN(C)CC4)ccc3OCC)nc12` [sildenafil citrate], which solubility at 10 min is on record?
**A.** The solubility at 10 min was 18 mg/mL.
